Our source for the IC50 and Activity values is ChEMBL document CHEMBL3817735 (J Med Chem, 2016).

In series [1] the target is T1, Neuraminidase (Influenza A virus, UniProt B4URF0). Nature of the series: Inhibition of Influenza A virus (A/duck/Tsukuba/394/2005(H5N3)) neuraminidase N3 activity using 4MU-Neu5Ac as substrate preincubated for 15 mins followed by substrate addition measured after 15 mins by fluorescence analysis.
A further series concerns the target T2, Sialidase-3 (Homo sapiens, UniProt Q9UQ49).
T2 sequence (Q9UQ49 whole entry): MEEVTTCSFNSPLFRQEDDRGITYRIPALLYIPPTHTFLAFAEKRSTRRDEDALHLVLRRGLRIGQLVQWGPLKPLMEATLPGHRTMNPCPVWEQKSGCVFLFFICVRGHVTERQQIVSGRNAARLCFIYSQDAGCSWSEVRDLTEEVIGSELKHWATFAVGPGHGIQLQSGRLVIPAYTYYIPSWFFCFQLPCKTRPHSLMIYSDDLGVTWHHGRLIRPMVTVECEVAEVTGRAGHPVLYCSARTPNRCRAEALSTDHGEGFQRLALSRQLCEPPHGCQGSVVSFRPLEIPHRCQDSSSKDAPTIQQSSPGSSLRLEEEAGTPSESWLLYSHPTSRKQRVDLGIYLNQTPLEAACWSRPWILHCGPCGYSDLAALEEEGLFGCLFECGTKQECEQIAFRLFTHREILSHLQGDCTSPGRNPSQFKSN
Nature of the series: Inhibition of human Neu3 expressed in HEK293T cells using GM3 as substrate incubated for 30 mins by HPLC analysis. The series is classed as cell-based, HEK-293T.

Series [2] deals with T1, Neuraminidase. Nature of the series: Inhibition of Influenza A virus (A/duck/Tsukuba/28/2005(H6N2)) neuraminidase N2 activity using 4MU-Neu5Ac as substrate preincubated for 15 mins followed by substrate addition measured after 15 mins by fluorescence analysis.
Series [3] has as its target T1, Neuraminidase. Nature of the series: Inhibition of Influenza A virus (A/duck/Tsukuba/67/2005(H1N1)) neuraminidase N1 activity using 4MU-Neu5Ac as substrate preincubated for 15 mins followed by substrate addition measured after 15 mins by fluorescence analysis.
The subject of a further series is MDCK. Nature of the series: Cytotoxicity against MDCK cells at 0.064 to 1000 uM incubated for 24 hrs by cell counting analysis. Format: cell-based, Canis lupus familiaris. The conditions noted are these: dog.
Series [4] has as its system Influenza A virus. Kind of series: Antiviral activity against Influenza A virus A/duck/Tsukuba/441/05(H11N9) infected in MDCK cells preincubated for 1 hr followed by infection measured after 19 to 20 hrs by galactosidase-based fluorescence assay and peroxidase-based chromogenic assay. Format: functional, organism-based.
Series [5] concerns Influenza A virus. Kind of series: Antiviral activity against Influenza A virus (A/duck/Tsukuba/700/2007(H7N7)) infected in MDCK cells preincubated for 1 hr followed by infection measured after 19 to 20 hrs by galactosidase-based fluorescence assay and peroxidase-based chromogenic assay. The series is classed as functional, organism-based.
Series [6] concerns Influenza A virus. Nature of the series: Antiviral activity against Influenza A virus (A/Narita/1/2009(H1N1)) infected in dog AX4 cells preincubated for 1 hr followed by infection measured after 19 to 20 hrs by galactosidase-based fluorescence assay and peroxidase-based chromogenic assay. The series is classed as functional, organism-based.
The test system of series [7] is Influenza A virus. Nature of the series: Antiviral activity against Influenza A virus (A/Aichi/75/2008(H3N2)) infected in dog AX4 cells preincubated for 1 hr followed by infection measured after 19 to 20 hrs by galactosidase-based fluorescence assay and peroxidase-based chromogenic assay. The series is classed as functional, organism-based.
The test system of series [8] is Influenza A virus. Nature of the series: Antiviral activity against Influenza A virus (A/duck/Shiga/8/2004(H4N6)) infected in MDCK cells preincubated for 1 hr followed by infection measured after 19 to 20 hrs by galactosidase-based fluorescence assay and peroxidase-based chromogenic assay. The series is classed as functional, organism-based.
The target in series [9] is T3, Sialidase-4 (Homo sapiens, UniProt Q8WWR8).
T3 sequence (Q8WWR8 whole entry): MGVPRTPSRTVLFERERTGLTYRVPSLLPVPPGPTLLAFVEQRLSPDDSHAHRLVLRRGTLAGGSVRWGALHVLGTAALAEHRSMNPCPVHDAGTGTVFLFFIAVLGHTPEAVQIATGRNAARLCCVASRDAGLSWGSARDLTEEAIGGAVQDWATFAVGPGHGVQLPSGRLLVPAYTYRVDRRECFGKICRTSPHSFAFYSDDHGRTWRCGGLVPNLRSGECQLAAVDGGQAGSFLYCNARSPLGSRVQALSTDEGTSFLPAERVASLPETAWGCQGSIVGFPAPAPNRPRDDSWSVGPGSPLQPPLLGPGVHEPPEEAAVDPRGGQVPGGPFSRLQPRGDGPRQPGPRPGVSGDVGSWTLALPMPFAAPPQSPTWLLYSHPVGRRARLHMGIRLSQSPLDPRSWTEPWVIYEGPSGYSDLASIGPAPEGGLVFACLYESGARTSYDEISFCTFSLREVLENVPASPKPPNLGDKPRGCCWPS
Nature of the series: Inhibition of human Neu4 expressed in HEK293T cells using GM3 as substrate incubated for 30 mins by HPLC analysis. The series is classed as cell-based, HEK-293T.

In series [10] the test system is Influenza A virus. Kind of series: Antiviral activity against Influenza A virus (A/California/04/2009(H1N1)) infected in dog AX4 cells preincubated for 1 hr followed by infection measured after 19 to 20 hrs by galactosidase-based fluorescence assay and peroxidase-based chromogenic assay. Format: functional, organism-based.
Series [11] deals with Influenza A virus. Nature of the series: Antiviral activity against Influenza A virus A/Kitakyushu/10/06(H1N1) infected in dog AX4 cells preincubated for 1 hr followed by infection measured after 19 to 20 hrs by galactosidase-based fluorescence assay and peroxidase-based chromogenic assay. The series is classed as functional, organism-based.
For series [12], the system named is Influenza A virus. Nature of the series: Antiviral activity against Influenza A virus (A/duck/Tsukuba/20/2007(H8N4)) infected in MDCK cells preincubated for 1 hr followed by infection measured after 19 to 20 hrs by galactosidase-based fluorescence assay and peroxidase-based chromogenic assay. The series is classed as functional, organism-based.
For series [13], the system named is Influenza A virus. Nature of the series: Antiviral activity against Influenza A virus (A/duck/Tsukuba/28/2006(H3N8)) infected in MDCK cells preincubated for 1 hr followed by infection measured after 19 to 20 hrs by galactosidase-based fluorescence assay and peroxidase-based chromogenic assay. The series is classed as functional, organism-based.
The next series addresses Sialidase-1 (Homo sapiens, UniProt Q99519). Nature of the series: Inhibition of human Neu1 expressed in HEK293T cells using 4MU-Neu5Ac as substrate incubated for 30 mins by HPLC analysis. The series is classed as cell-based, HEK-293T.
Series [14] concerns Influenza A virus. Nature of the series: Antiviral activity against Influenza A virus (A/duck/Tsukuba/394/2005(H5N3)) infected in MDCK cells preincubated for 1 hr followed by infection measured after 19 to 20 hrs by galactosidase-based fluorescence assay and peroxidase-based chromogenic assay. The series is classed as functional, organism-based.
The subject of series [15] is Influenza A virus. Nature of the series: Antiviral activity against Influenza A virus (A/duck/Tsukuba/67/2005(H1N1)) infected in MDCK cells preincubated for 1 hr followed by infection measured after 19 to 20 hrs by galactosidase-based fluorescence assay and peroxidase-based chromogenic assay. Format: functional, organism-based.
Series [16] deals with Influenza A virus. Nature of the series: Antiviral activity against Influenza A virus A/duck/Chiba/13/06(H12N5) infected in MDCK cells preincubated for 1 hr followed by infection measured after 19 to 20 hrs by galactosidase-based fluorescence assay and peroxidase-based chromogenic assay. Format: functional, organism-based.
A short description of series [17]: Cytotoxicity against dog AX4 cells at 0.064 to 1000 uM incubated for 24 hrs by cell counting analysis. The series is classed as cell-based, Canis lupus familiaris. The conditions noted are these: ax4, 24 h.
Series [18] deals with Influenza A virus. Kind of series: Antiviral activity against Influenza A virus (A/duck/Tsukuba/28/2005(H6N2)) infected in MDCK cells preincubated for 1 hr followed by infection measured after 19 to 20 hrs by galactosidase-based fluorescence assay and peroxidase-based chromogenic assay. The series is classed as functional, organism-based.
The subject of series [19] is Influenza A virus. Kind of series: Antiviral activity against Influenza A virus A/Yamaguchi/20/06(H1N1) infected in dog AX4 cells preincubated for 1 hr followed by infection measured after 19 to 20 hrs by galactosidase-based fluorescence assay and peroxidase-based chromogenic assay. Format: functional, organism-based.
The target of series [20] is T3, Sialidase-4. Kind of series: Inhibition of human Neu4 expressed in HEK293T cells using 4MU-Neu5Ac as substrate incubated for 30 mins by HPLC analysis. Format: cell-based, HEK-293T.
The subject of series [21] is Influenza A virus. Kind of series: Antiviral activity against Influenza A virus (A/mallard/Hokkaido/24/2009(H5N1)) infected in MDCK cells preincubated for 1 hr followed by infection measured after 19 to 20 hrs by galactosidase-based fluorescence assay and peroxidase-based chromogenic assay. Format: functional, organism-based.
Series [22] relates to Influenza A virus. Kind of series: Antiviral activity against Influenza A virus (A/Aichi/102/2008(H3N2)) infected in dog AX4 cells preincubated for 1 hr followed by infection measured after 19 to 20 hrs by galactosidase-based fluorescence assay and peroxidase-based chromogenic assay. The series is classed as functional, organism-based.

T1 sequence (B4URF0 whole entry): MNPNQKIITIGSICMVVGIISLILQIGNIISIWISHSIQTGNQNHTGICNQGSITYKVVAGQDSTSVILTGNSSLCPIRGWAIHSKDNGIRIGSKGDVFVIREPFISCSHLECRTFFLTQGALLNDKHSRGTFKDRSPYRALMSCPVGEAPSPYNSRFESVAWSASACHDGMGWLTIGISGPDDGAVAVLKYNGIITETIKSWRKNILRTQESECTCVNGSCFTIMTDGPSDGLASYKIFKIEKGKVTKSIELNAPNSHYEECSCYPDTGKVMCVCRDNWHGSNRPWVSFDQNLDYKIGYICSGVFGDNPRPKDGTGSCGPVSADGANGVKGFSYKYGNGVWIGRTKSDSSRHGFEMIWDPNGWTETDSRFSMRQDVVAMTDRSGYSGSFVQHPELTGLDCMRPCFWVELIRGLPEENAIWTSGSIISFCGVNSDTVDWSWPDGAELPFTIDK

Consider `CC(=O)N[C@H]1[C@H]([C@H](O)[C@H](O)CO)OC(C(=O)O)=C[C@@H]1O` [NEU5AC2EN], for which the IC50 against Neuraminidase [1] turned out to be 1 µM; at Sialidase-3, 50 µM; on Neuraminidase [2] it was 1 µM; on Neuraminidase [3], 1 µM.
For the compound `CC(=O)N[C@H]1[C@H]([C@H](O)[C@H](O)CNC(=O)C2CC2)OC(C(=O)O)=C[C@@H]1NC(=N)N.O=C(O)C(F)(F)F`, the Activity result (in the series with MDCK; in series [17]) was “Non-toxic” each time. Also, the IC50 with Influenza A virus [4] was 0.3 µM; in the series on Influenza A virus [5], 0.276 µM; in the series with Influenza A virus [6], 0.00486 µM; in the series on Influenza A virus [7], 1.34 nM; at Sialidase-3, more than 1000 µM; in the series on Influenza A virus [8] it was 0.0248 µM. The IC50 on Sialidase-4 [9] is more than 1000 µM; in the series with Influenza A virus [10] it was 0.00604 µM; in the series with Influenza A virus [11], 0.106 µM; with Influenza A virus [12] it was 0.197 µM; with Influenza A virus [13] (Influenza A virus, MDCK), 0.163 µM; at Sialidase-1, more than 1000 µM. In addition, the IC50 is 0.0382 µM with Influenza A virus [14]; 0.049 µM in the series with Influenza A virus [15]; 0.0293 µM with Influenza A virus [16]; 0.0118 µM with Influenza A virus [18]; 0.0276 µM with Influenza A virus [19]; more than 1000 µM against Sialidase-4 [20]. In addition, the IC50 in the series with Influenza A virus [21] was 0.396 µM; in the series on Influenza A virus [22] it was 1.27 nM.
For `CCCCC(=O)NC[C@@H](O)[C@@H](O)[C@@H]1OC(C(=O)O)=C[C@H](NC(=N)N)[C@H]1NC(C)=O.O=C(O)C(F)(F)F`, the Activity entry (in the series on MDCK; in [17]) was “Non-toxic” in each case. Besides, the IC50 in the series with Influenza A virus [4] is 5.5 µM; in the series on Influenza A virus [5] it was 5.02 µM; in the series on Influenza A virus [6], 0.127 µM; in the series with Influenza A virus [7] it was 24.7 nM; against Sialidase-3 it was more than 1000 µM; with Influenza A virus [8], 1.1 µM. Besides, the IC50 against Sialidase-4 [9] was more than 700 µM; in the series on Influenza A virus [10] it was 0.136 µM; in the series on Influenza A virus [11], 0.337 µM; in the series with Influenza A virus [12], 5.67 µM; in the series with Influenza A virus [13] (Influenza A virus, MDCK), 47.7 µM; at Sialidase-1, more than 700 µM. The IC50 with Influenza A virus [14] is 5.87 µM; in the series on Influenza A virus [15] it was 2.25 µM; with Influenza A virus [16], 25.6 µM; in the series with Influenza A virus [18] it was 0.448 µM; with Influenza A virus [19], 0.39 µM; against Sialidase-4 [20] it was more than 700 µM. The values for the IC50 in the series with Influenza A virus [21] and in the series with Influenza A virus [22] were 8.3 µM and 40.2 nM, respectively.
For `CC(=O)N[C@H]1[C@H]([C@H](O)[C@H](O)CO)OC(C(=O)O)=C[C@@H]1NC(=N)N` [ZANAMIVIR], the IC50 in the series with Influenza A virus [4] is 0.065 µM; in the series on Influenza A virus [5], 0.0584 µM; in the series on Influenza A virus [8], 0.0109 µM; in the series on Influenza A virus [12], 0.00933 µM; with Influenza A virus [13] (mdck) it was 0.0167 µM; on Sialidase-1 it was more than 1000 µM. In addition, the IC50 in the series on Influenza A virus [14] stood at 0.0119 µM; in the series with Influenza A virus [15], 0.00273 µM; in the series with Influenza A virus [16], 0.0288 µM; in the series on Influenza A virus [18], 0.0065 µM; in the series on Influenza A virus [21], 0.0156 µM.
For `CCC(CC)OC[C@@H]1CC(C(=O)O)=C[C@H](N)[C@H]1NC(C)=O`, the IC50 worked out at 0.0129 µM in the series on Influenza A virus [4]; 0.00474 µM in the series with Influenza A virus [5]; 0.00028 µM with Influenza A virus [6]; 0.07 nM in the series with Influenza A virus [7]; 0.00087 µM with Influenza A virus [8]; 0.0003 µM in the series with Influenza A virus [10]. In addition, the IC50 in the series on Influenza A virus [11] is 3.91 µM; in the series with Influenza A virus [12] it was 0.005 µM; with Influenza A virus [13] (Influenza A virus, MDCK), 0.00551 µM; in the series on Influenza A virus [14] it was 0.00228 µM; with Influenza A virus [15], 0.00758 µM; in the series on Influenza A virus [16], 0.00364 µM. Besides, the IC50 in the series with Influenza A virus [18] was found to be 0.00085 µM; in the series on Influenza A virus [19], 0.00171 µM; with Influenza A virus [21], 0.0282 µM; in the series with Influenza A virus [22], 0.04 nM.

One may read the IC50 as the concentration that inhibits the measured activity by half. A lower IC50 goes with greater potency in that assay.
